Measurements published in ChEMBL document CHEMBL1131059, “Synthesis and biological activity of a new series of N6-arylcarbamoyl, 2-(Ar)alkynyl-N6-arylcarbamoyl, and N6-carboxamido derivatives of adenosine-5'-N-ethyluronamide as A1 and A3 adenosine receptor agonists” (J Med Chem, 1998).

target: Adenosine receptor A2a (Rattus norvegicus, UniProt P30543); test: not given
Sequence (P30543 whole entry): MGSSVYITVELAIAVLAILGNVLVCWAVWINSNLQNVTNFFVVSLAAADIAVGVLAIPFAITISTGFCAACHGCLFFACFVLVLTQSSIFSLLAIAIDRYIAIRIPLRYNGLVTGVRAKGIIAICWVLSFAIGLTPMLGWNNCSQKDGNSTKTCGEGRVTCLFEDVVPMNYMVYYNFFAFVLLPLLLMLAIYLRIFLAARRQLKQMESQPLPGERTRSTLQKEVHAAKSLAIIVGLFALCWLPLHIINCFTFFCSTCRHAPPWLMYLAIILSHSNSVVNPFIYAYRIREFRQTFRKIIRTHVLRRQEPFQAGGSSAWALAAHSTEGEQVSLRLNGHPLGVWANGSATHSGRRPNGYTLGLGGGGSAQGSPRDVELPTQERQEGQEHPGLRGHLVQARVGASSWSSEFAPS

Ki [nM] | SMILES
740 | CCNC(=O)[C@H]1O[C@@H](n2cnc3c(NC(=O)Nc4ccc(NS(=O)(=O)c5ccccn5)cc4)ncnc32)[C@H](O)[C@@H]1O
470 | CNC(=O)[C@H]1OC(n2cnc3c(NCc4cccc(I)c4Cl)ncnc32)[C@H](O)[C@@H]1O (stereo partly drawn)
1960 | CCNC(=O)[C@H]1O[C@@H](n2cnc3c(NC(=O)c4ccccc4Cl)ncnc32)[C@H](O)[C@@H]1O
7130 | CCCCC#Cc1nc(NC(=O)Nc2cccc(Cl)c2)c2ncn([C@@H]3O[C@H](C(=O)NCC)[C@@H](O)[C@H]3O)c2n1
59 | CCNC(=O)[C@H]1O[C@@H](n2cnc3c(NC(=O)Nc4ccc(OC)cc4)nc(Cl)nc32)[C@H](O)[C@@H]1O
1670 | CCNC(=O)[C@H]1O[C@@H](n2cnc3c(NC(=O)Nc4ccc(OC)cc4)nc(C#CCCCc4ccccc4)nc32)[C@H](O)[C@@H]1O
557 | CCNC(=O)[C@H]1O[C@@H](n2cnc3c(NC(=O)Nc4cccc(Cl)c4)nc(Cl)nc32)[C@H](O)[C@@H]1O
260 | CCNC(=O)[C@H]1O[C@@H](n2cnc3c(NC(=O)Nc4ccc(OC)cc4)nc(I)nc32)[C@H](O)[C@@H]1O
977 | CCNC(=O)[C@H]1OC(n2cnc3c(NC(=O)Nc4ccc(NS(=O)(=O)c5cc(C)on5)cc4)ncnc32)[C@H](O)[C@@H]1O (stereo partly drawn)
2650 | CCNC(=O)[C@H]1O[C@@H](n2cnc3c(NC(=O)NCCc4ccccc4)ncnc32)[C@H](O)[C@@H]1O
1570 | CCNC(=O)[C@H]1O[C@@H](n2cnc3c(NC(=O)NCCc4ccc(OC)c(OC)c4)ncnc32)[C@H](O)[C@@H]1O
48700 | CCNC(=O)[C@H]1O[C@@H](n2cnc3c(NC(=O)Nc4cccc(Cl)c4)nc(C#Cc4ccccc4)nc32)[C@H](O)[C@@H]1O
255 | CCCOc1ccc(NC(=O)Nc2ncnc3c2ncn3C2O[C@H](C(=O)NCC)[C@@H](O)[C@H]2O)cc1 (stereo partly drawn)
1860 | CCNC(=O)[C@H]1O[C@@H](n2cnc3c(NC(=O)NCc4ccco4)ncnc32)[C@H](O)[C@@H]1O
10600 | CCNC(=O)[C@H]1O[C@@H](n2cnc3c(NC(=O)Nc4cccc(Cl)c4)nc(I)nc32)[C@H](O)[C@@H]1O

SMILES | Ki [nM]
CCNC(=O)[C@H]1O[C@@H](n2cnc3c(NC(=O)Nc4ccc(NS(=O)(=O)c5ncccn5)cc4)ncnc32)[C@H](O)[C@@H]1O | 16.8

target: T1, Adenosine receptor A1 (Rattus norvegicus, UniProt P25099); test: not given
T1 sequence (P25099 whole entry): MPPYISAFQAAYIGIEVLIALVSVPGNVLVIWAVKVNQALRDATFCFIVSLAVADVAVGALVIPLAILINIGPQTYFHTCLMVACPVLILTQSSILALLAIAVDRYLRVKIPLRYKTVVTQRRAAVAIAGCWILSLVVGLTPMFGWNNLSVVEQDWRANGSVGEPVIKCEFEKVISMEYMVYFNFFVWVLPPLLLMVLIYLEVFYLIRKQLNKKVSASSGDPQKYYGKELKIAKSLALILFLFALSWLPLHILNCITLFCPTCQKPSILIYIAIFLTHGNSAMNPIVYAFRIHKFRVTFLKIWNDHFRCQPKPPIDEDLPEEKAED

Ki [nM] | SMILES
292 | CCNC(=O)[C@H]1O[C@@H](n2cnc3c(NC(=O)Nc4ccc(NS(=O)(=O)c5ccccn5)cc4)ncnc32)[C@H](O)[C@@H]1O
820 | CNC(=O)[C@H]1OC(n2cnc3c(NCc4cccc(I)c4Cl)ncnc32)[C@H](O)[C@@H]1O (stereo partly drawn)
1170 | CCNC(=O)[C@H]1O[C@@H](n2cnc3c(NC(=O)c4ccccc4Cl)ncnc32)[C@H](O)[C@@H]1O
2040 | CCCCC#Cc1nc(NC(=O)Nc2cccc(Cl)c2)c2ncn([C@@H]3O[C@H](C(=O)NCC)[C@@H](O)[C@H]3O)c2n1
22 | CCNC(=O)[C@H]1O[C@@H](n2cnc3c(NC(=O)Nc4ccc(OC)cc4)nc(Cl)nc32)[C@H](O)[C@@H]1O
90 | CCNC(=O)[C@H]1O[C@@H](n2cnc3c(NC(=O)Nc4cccc(Cl)c4)nc(Cl)nc32)[C@H](O)[C@@H]1O
29.4 | CCNC(=O)[C@H]1O[C@@H](n2cnc3c(NC(=O)Nc4ccc(OC)cc4)nc(I)nc32)[C@H](O)[C@@H]1O
901 | CCNC(=O)[C@H]1OC(n2cnc3c(NC(=O)Nc4ccc(NS(=O)(=O)c5cc(C)on5)cc4)ncnc32)[C@H](O)[C@@H]1O (stereo partly drawn)
129 | CCNC(=O)[C@H]1O[C@@H](n2cnc3c(NC(=O)NCCc4ccccc4)ncnc32)[C@H](O)[C@@H]1O
1770 | CCNC(=O)[C@H]1O[C@@H](n2cnc3c(NC(=O)NCCc4ccc(OC)c(OC)c4)ncnc32)[C@H](O)[C@@H]1O
1330 | CCNC(=O)[C@H]1O[C@@H](n2cnc3c(NC(=O)Nc4cccc(Cl)c4)nc(C#Cc4ccccc4)nc32)[C@H](O)[C@@H]1O
247 | CCCOc1ccc(NC(=O)Nc2ncnc3c2ncn3C2O[C@H](C(=O)NCC)[C@@H](O)[C@H]2O)cc1 (stereo partly drawn)
419 | CCNC(=O)[C@H]1O[C@@H](n2cnc3c(NC(=O)NCc4ccco4)ncnc32)[C@H](O)[C@@H]1O
103 | CCNC(=O)[C@H]1O[C@@H](n2cnc3c(NC(=O)Nc4cccc(Cl)c4)nc(I)nc32)[C@H](O)[C@@H]1O

SMILES | Ki [nM]
CCNC(=O)[C@H]1O[C@@H](n2cnc3c(NC(=O)Nc4ccc(NS(=O)(=O)c5ncccn5)cc4)ncnc32)[C@H](O)[C@@H]1O | 725

target: Adenosine receptors; A1 & A3 (Rattus norvegicus) (UniProt P25099+P28647); test: Selectivity for binding affinity towards A1 adenosine receptor in rat brain membrane and rat A3 receptor expressed in CHO cells.; format: cell-based

Ratio | SMILES
5.4 | CCNC(=O)[C@H]1O[C@@H](n2cnc3c(NC(=O)Nc4ccc(NS(=O)(=O)c5ccccn5)cc4)ncnc32)[C@H](O)[C@@H]1O
2500 | CNC(=O)[C@H]1OC(n2cnc3c(NCc4cccc(I)c4Cl)ncnc32)[C@H](O)[C@@H]1O (stereo partly drawn)
1.6 | CCNC(=O)[C@H]1O[C@@H](n2cnc3c(NC(=O)c4ccccc4Cl)ncnc32)[C@H](O)[C@@H]1O
3.5 | CCCCC#Cc1nc(NC(=O)Nc2cccc(Cl)c2)c2ncn([C@@H]3O[C@H](C(=O)NCC)[C@@H](O)[C@H]3O)c2n1
1.2 | CCNC(=O)[C@H]1O[C@@H](n2cnc3c(NC(=O)Nc4ccc(OC)cc4)nc(Cl)nc32)[C@H](O)[C@@H]1O
160 | CCNC(=O)[C@H]1O[C@@H](n2cnc3c(NC(=O)Nc4ccc(OC)cc4)nc(C#CCCCc4ccccc4)nc32)[C@H](O)[C@@H]1O
1.2 | CCNC(=O)[C@H]1O[C@@H](n2cnc3c(NC(=O)Nc4cccc(Cl)c4)nc(Cl)nc32)[C@H](O)[C@@H]1O
0.12 | CCNC(=O)[C@H]1O[C@@H](n2cnc3c(NC(=O)Nc4ccc(OC)cc4)nc(I)nc32)[C@H](O)[C@@H]1O
5.8 | CCNC(=O)[C@H]1OC(n2cnc3c(NC(=O)Nc4ccc(NS(=O)(=O)c5cc(C)on5)cc4)ncnc32)[C@H](O)[C@@H]1O (stereo partly drawn)
0.86 | CCNC(=O)[C@H]1O[C@@H](n2cnc3c(NC(=O)NCCc4ccccc4)ncnc32)[C@H](O)[C@@H]1O
4.3 | CCNC(=O)[C@H]1O[C@@H](n2cnc3c(NC(=O)NCCc4ccc(OC)c(OC)c4)ncnc32)[C@H](O)[C@@H]1O
2.1 | CCNC(=O)[C@H]1O[C@@H](n2cnc3c(NC(=O)Nc4cccc(Cl)c4)nc(C#Cc4ccccc4)nc32)[C@H](O)[C@@H]1O
2.3 | CCCOc1ccc(NC(=O)Nc2ncnc3c2ncn3C2O[C@H](C(=O)NCC)[C@@H](O)[C@H]2O)cc1 (stereo partly drawn)
0.58 | CCNC(=O)[C@H]1O[C@@H](n2cnc3c(NC(=O)NCc4ccco4)ncnc32)[C@H](O)[C@@H]1O
0.33 | CCNC(=O)[C@H]1O[C@@H](n2cnc3c(NC(=O)Nc4cccc(Cl)c4)nc(I)nc32)[C@H](O)[C@@H]1O

SMILES | Ratio
CCNC(=O)[C@H]1O[C@@H](n2cnc3c(NC(=O)Nc4ccc(NS(=O)(=O)c5ncccn5)cc4)ncnc32)[C@H](O)[C@@H]1O | 1.7

target: T2, Adenosine receptor A3 (Rattus norvegicus, UniProt P28647); test: biochemical
T2 sequence (P28647 whole entry): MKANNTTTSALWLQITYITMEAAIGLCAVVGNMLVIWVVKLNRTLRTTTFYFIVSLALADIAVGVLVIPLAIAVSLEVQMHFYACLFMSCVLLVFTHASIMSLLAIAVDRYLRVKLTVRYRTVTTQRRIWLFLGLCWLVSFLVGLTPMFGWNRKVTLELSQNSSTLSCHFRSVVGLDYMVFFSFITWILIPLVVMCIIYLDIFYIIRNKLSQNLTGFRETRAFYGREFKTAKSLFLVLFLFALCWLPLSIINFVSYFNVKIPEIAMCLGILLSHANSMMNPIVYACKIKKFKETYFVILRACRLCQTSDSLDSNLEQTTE
Description: Binding affinity against rat adenosine A3 receptor expressed in CHO cells using [125I]-.

Ki [nM] | SMILES
54.1 | CCNC(=O)[C@H]1O[C@@H](n2cnc3c(NC(=O)Nc4ccc(NS(=O)(=O)c5ccccn5)cc4)ncnc32)[C@H](O)[C@@H]1O
0.33 | CNC(=O)[C@H]1OC(n2cnc3c(NCc4cccc(I)c4Cl)ncnc32)[C@H](O)[C@@H]1O (stereo partly drawn)
754 | CCNC(=O)[C@H]1O[C@@H](n2cnc3c(NC(=O)c4ccccc4Cl)ncnc32)[C@H](O)[C@@H]1O
581 | CCCCC#Cc1nc(NC(=O)Nc2cccc(Cl)c2)c2ncn([C@@H]3O[C@H](C(=O)NCC)[C@@H](O)[C@H]3O)c2n1
17.1 | CCNC(=O)[C@H]1O[C@@H](n2cnc3c(NC(=O)Nc4ccc(OC)cc4)nc(Cl)nc32)[C@H](O)[C@@H]1O
89.5 | CCNC(=O)[C@H]1O[C@@H](n2cnc3c(NC(=O)Nc4ccc(OC)cc4)nc(C#CCCCc4ccccc4)nc32)[C@H](O)[C@@H]1O
77.6 | CCNC(=O)[C@H]1O[C@@H](n2cnc3c(NC(=O)Nc4cccc(Cl)c4)nc(Cl)nc32)[C@H](O)[C@@H]1O
251 | CCNC(=O)[C@H]1O[C@@H](n2cnc3c(NC(=O)Nc4ccc(OC)cc4)nc(I)nc32)[C@H](O)[C@@H]1O
155 | CCNC(=O)[C@H]1OC(n2cnc3c(NC(=O)Nc4ccc(NS(=O)(=O)c5cc(C)on5)cc4)ncnc32)[C@H](O)[C@@H]1O (stereo partly drawn)
149 | CCNC(=O)[C@H]1O[C@@H](n2cnc3c(NC(=O)NCCc4ccccc4)ncnc32)[C@H](O)[C@@H]1O
411 | CCNC(=O)[C@H]1O[C@@H](n2cnc3c(NC(=O)NCCc4ccc(OC)c(OC)c4)ncnc32)[C@H](O)[C@@H]1O
611 | CCNC(=O)[C@H]1O[C@@H](n2cnc3c(NC(=O)Nc4cccc(Cl)c4)nc(C#Cc4ccccc4)nc32)[C@H](O)[C@@H]1O
107 | CCCOc1ccc(NC(=O)Nc2ncnc3c2ncn3C2O[C@H](C(=O)NCC)[C@@H](O)[C@H]2O)cc1 (stereo partly drawn)
713 | CCNC(=O)[C@H]1O[C@@H](n2cnc3c(NC(=O)NCc4ccco4)ncnc32)[C@H](O)[C@@H]1O
315 | CCNC(=O)[C@H]1O[C@@H](n2cnc3c(NC(=O)Nc4cccc(Cl)c4)nc(I)nc32)[C@H](O)[C@@H]1O

SMILES | Ki [nM]
CCNC(=O)[C@H]1O[C@@H](n2cnc3c(NC(=O)Nc4ccc(NS(=O)(=O)c5ncccn5)cc4)ncnc32)[C@H](O)[C@@H]1O | 405
